Test results: PubChem BioAssay AID1259407 (Chemical Carcinogenesis Research Information System (CCRIS), 2018)
Active and inactive are the calls of the source. How the calls were made is not given here.

System: CCRIS mutagenicity, Ames/micronucleus/aberration tests
Experiment: CCRIS mutagenicity studies
[1] = Test System: AMES SALMONELLA TYPHIMURIUM, Strain/Indicator: TA98, Metabolic Activation: NONE, Method: PREINCUBATION
[2] = Test System: AMES SALMONELLA TYPHIMURIUM, Strain/Indicator: TA100, Metabolic Activation: NONE, Method: PREINCUBATION
[3] = Test System: AMES SALMONELLA TYPHIMURIUM, Strain/Indicator: TA100, Metabolic Activation: RAT, LIVER, S-9, AROCLOR 1254, Method: PREINCUBATION
[4] = Test System: AMES SALMONELLA TYPHIMURIUM, Strain/Indicator: TA1535, Metabolic Activation: NONE, Method: PREINCUBATION
[5] = Test System: AMES SALMONELLA TYPHIMURIUM, Strain/Indicator: TA1537, Metabolic Activation: NONE, Method: PREINCUBATION
[6] = Test System: AMES SALMONELLA TYPHIMURIUM, Strain/Indicator: TA100, Metabolic Activation: NONE, Method: STANDARD PLATE

## O=[N+]([O-])c1ccc(S(=O)(=O)O)cc1
[1]
  mutagenic call: inactive; negative
Test System: AMES SALMONELLA TYPHIMURIUM, Strain/Indicator: TA98, Metabolic Activation: RAT, LIVER, S-9, KANECHLOR 500, Method: PREINCUBATION
  mutagenic call: inactive; negative
[2]
  mutagenic call: inactive; negative
Test System: AMES SALMONELLA TYPHIMURIUM, Strain/Indicator: TA100, Metabolic Activation: RAT, LIVER, S-9, KANECHLOR 500, Method: PREINCUBATION
  mutagenic call: inactive; negative

## CC(C)NCC(O)c1ccc(O)c(O)c1 (centres undefined)
End Point: IN VITRO CHROMOSOMAL ABERRATIONS, Test System: CHINESE HAMSTER OVARY CELLS, Metabolic Activation: NONE
  mutagenic call: inactive; negative
End Point: IN VITRO CHROMOSOMAL ABERRATIONS, Test System: CHINESE HAMSTER OVARY CELLS, Metabolic Activation: RAT, LIVER, S-9, AROCLOR 1254
  mutagenic call: active; positive
Test System: AMES SALMONELLA TYPHIMURIUM, Strain/Indicator: TA98, Metabolic Activation: HAMSTER, LIVER, S-9, AROCLOR 1254, Method: PREINCUBATION
  mutagenic call: inactive; negative
[1]
  mutagenic call: inactive; negative
Test System: AMES SALMONELLA TYPHIMURIUM, Strain/Indicator: TA98, Metabolic Activation: RAT, LIVER, S-9, AROCLOR 1254, Method: PREINCUBATION
  mutagenic call: inactive; negative
Test System: AMES SALMONELLA TYPHIMURIUM, Strain/Indicator: TA100, Metabolic Activation: HAMSTER, LIVER, S-9, AROCLOR 1254, Method: PREINCUBATION
  mutagenic call: inactive; negative
[2]
  mutagenic call: inactive; negative
[3]
  mutagenic call: inactive; negative
Test System: AMES SALMONELLA TYPHIMURIUM, Strain/Indicator: TA1535, Metabolic Activation: HAMSTER, LIVER, S-9, AROCLOR 1254, Method: PREINCUBATION
  mutagenic call: inactive; negative
[4]
  mutagenic call: inactive; negative
Test System: AMES SALMONELLA TYPHIMURIUM, Strain/Indicator: TA1535, Metabolic Activation: RAT, LIVER, S-9, AROCLOR 1254, Method: PREINCUBATION
  mutagenic call: inactive; negative
Test System: AMES SALMONELLA TYPHIMURIUM, Strain/Indicator: TA1537, Metabolic Activation: HAMSTER, LIVER, S-9, AROCLOR 1254, Method: PREINCUBATION
  mutagenic call: inactive; negative
[5]
  mutagenic call: inactive; negative
Test System: AMES SALMONELLA TYPHIMURIUM, Strain/Indicator: TA1537, Metabolic Activation: RAT, LIVER, S-9, AROCLOR 1254, Method: PREINCUBATION
  mutagenic call: inactive; negative

## NC(=O)CC1CO1 (centres undefined)
[2]
  mutagenic call: active; positive
[6]
  mutagenic call: active; positive
[3]
  mutagenic call: active; positive
Test System: AMES SALMONELLA TYPHIMURIUM, Strain/Indicator: TA100, Metabolic Activation: RAT, LIVER, S-9, AROCLOR 1254, Method: STANDARD PLATE
  mutagenic call: active; positive

## NNc1nncc2ncccc12
[1]
  mutagenic call: active; positive
Test System: AMES SALMONELLA TYPHIMURIUM, Strain/Indicator: TA98, Metabolic Activation: RAT, LIVER, S-9, PCB, Method: PREINCUBATION
  mutagenic call: active; positive
[2]
  mutagenic call: active; positive
Test System: AMES SALMONELLA TYPHIMURIUM, Strain/Indicator: TA100, Metabolic Activation: RAT, LIVER, S-9, PCB, Method: PREINCUBATION
  mutagenic call: active; positive

## O=C(/C=C/c1ccc(O)c(O)c1)O[C@H](Cc1ccc(O)c(O)c1)C(=O)O
End Point: In vivo micronucleus, Species: Mouse, Strain/Sex: Swiss/Male, Route: Oral
  mutagenic call: inactive; negative

## CCOC(=O)CC(C)=O
Test System: AMES SALMONELLA TYPHIMURIUM, Strain/Indicator: TA97, Metabolic Activation: NONE, Method: PREINCUBATION
  mutagenic call: inactive; negative
Test System: AMES SALMONELLA TYPHIMURIUM, Strain/Indicator: TA97, Metabolic Activation: RAT, LIVER, S-9, AROCLOR 1254, Method: PREINCUBATION
  mutagenic call: inactive; negative
[1]
  mutagenic call: inactive; negative
Test System: AMES SALMONELLA TYPHIMURIUM, Strain/Indicator: TA98, Metabolic Activation: RAT LIVER S-9, PHENOBARBITAL AND BETA-NAPHTHOFLAVONE, Method: PREINCUBATION
  mutagenic call: inactive; negative
[2]
  mutagenic call: inactive; negative
Test System: AMES SALMONELLA TYPHIMURIUM, Strain/Indicator: TA100, Metabolic Activation: RAT LIVER S-9, PHENOBARBITAL AND BETA-NAPHTHOFLAVONE, Method: PREINCUBATION
  mutagenic call: inactive; negative
Test System: AMES SALMONELLA TYPHIMURIUM, Strain/Indicator: TA102, Metabolic Activation: NONE, Method: PREINCUBATION
  mutagenic call: inactive; negative
Test System: AMES SALMONELLA TYPHIMURIUM, Strain/Indicator: TA102, Metabolic Activation: RAT, LIVER, S-9, AROCLOR 1254, Method: PREINCUBATION
  mutagenic call: inactive; negative
[4]
  mutagenic call: inactive; negative
Test System: AMES SALMONELLA TYPHIMURIUM, Strain/Indicator: TA1535, Metabolic Activation: RAT LIVER S-9, PHENOBARBITAL AND BETA-NAPHTHOFLAVONE, Method: PREINCUBATION
  mutagenic call: inactive; negative
[5]
  mutagenic call: inactive; negative
Test System: AMES SALMONELLA TYPHIMURIUM, Strain/Indicator: TA1537, Metabolic Activation: RAT LIVER S-9, PHENOBARBITAL AND BETA-NAPHTHOFLAVONE, Method: PREINCUBATION
  mutagenic call: inactive; negative
Test System: AMES SALMONELLA TYPHIMURIUM, Strain/Indicator: TA1538, Metabolic Activation: NONE, Method: PREINCUBATION
  mutagenic call: inactive; negative
Test System: AMES SALMONELLA TYPHIMURIUM, Strain/Indicator: TA1538, Metabolic Activation: RAT LIVER S-9, PHENOBARBITAL AND BETA-NAPHTHOFLAVONE, Method: PREINCUBATION
  mutagenic call: inactive; negative
Test System: E.COLI, Strain/Indicator: WP2UVRA, Metabolic Activation: NONE, Method: PREINCUBATION
  mutagenic call: inactive; negative
Test System: E.COLI, Strain/Indicator: WP2UVRA, Metabolic Activation: RAT LIVER S-9, PHENOBARBITAL AND BETA-NAPHTHOFLAVONE, Method: PREINCUBATION
  mutagenic call: inactive; negative

## CCC(C)COC(=O)/C=C/c1ccc(N=Cc2ccc(OC)cc2)cc1 (centres undefined)
Test System: AMES SALMONELLA TYPHIMURIUM, Strain/Indicator: TA98, Metabolic Activation: HAMSTER, LIVER, S-9, AROCLOR 1254 (30%), Method: PREINCUBATION
  mutagenic call: inactive; negative
[1]
  mutagenic call: inactive; negative
Test System: AMES SALMONELLA TYPHIMURIUM, Strain/Indicator: TA98, Metabolic Activation: RAT, LIVER, S-9, AROCLOR 1254 (30%), Method: PREINCUBATION
  mutagenic call: active; positive
Test System: AMES SALMONELLA TYPHIMURIUM, Strain/Indicator: TA100, Metabolic Activation: HAMSTER, LIVER, S-9, AROCLOR 1254 (30%), Method: PREINCUBATION
  mutagenic call: active; positive
[2]
  mutagenic call: inactive; negative
Test System: AMES SALMONELLA TYPHIMURIUM, Strain/Indicator: TA100, Metabolic Activation: RAT, LIVER, S-9, AROCLOR 1254 (30%), Method: PREINCUBATION
  mutagenic call: active; positive

## C[C@@H]1O[C@H](C)[C@@H](O)[C@H](O)[C@@H]1OS(=O)(=O)O
Test System: AMES SALMONELLA TYPHIMURIUM, Strain/Indicator: TA98, Metabolic Activation: NONE, Method: STANDARD PLATE
  mutagenic call: inactive; negative
Test System: AMES SALMONELLA TYPHIMURIUM, Strain/Indicator: TA98, Metabolic Activation: S-9, Method: STANDARD PLATE
  mutagenic call: inactive; negative
[6]
  mutagenic call: inactive; negative
Test System: AMES SALMONELLA TYPHIMURIUM, Strain/Indicator: TA100, Metabolic Activation: S-9, Method: STANDARD PLATE
  mutagenic call: inactive; negative
Test System: AMES SALMONELLA TYPHIMURIUM, Strain/Indicator: TA1535, Metabolic Activation: NONE, Method: STANDARD PLATE
  mutagenic call: inactive; negative
Test System: AMES SALMONELLA TYPHIMURIUM, Strain/Indicator: TA1535, Metabolic Activation: S-9, Method: STANDARD PLATE
  mutagenic call: inactive; negative
Test System: AMES SALMONELLA TYPHIMURIUM, Strain/Indicator: TA1537, Metabolic Activation: NONE, Method: STANDARD PLATE
  mutagenic call: inactive; negative
Test System: AMES SALMONELLA TYPHIMURIUM, Strain/Indicator: TA1537, Metabolic Activation: S-9, Method: STANDARD PLATE
  mutagenic call: inactive; negative
Test System: E. COLI, Strain/Indicator: WP2 UVRA, Metabolic Activation: NONE, Method: STANDARD PLATE
  mutagenic call: inactive; negative
Test System: E. COLI, Strain/Indicator: WP2 UVRA, Metabolic Activation: S-9, Method: STANDARD PLATE
  mutagenic call: inactive; negative
